Test results: patent US20210128674A1, “LHRH-CONJUGATED PRODIGIOSIN AND USES THEREOF” (Worcester Polytechnic Institute, priority 2019, published 2021)
“Also recorded” adds a separate entry of the source.

Key:
[1] = test system: MDA-MB-231 human triple negative breast cancer subcutaneous tumor xenografts; assay: subcutaneous xenograft tumor shrinkage study; type: in vivo, Athymic Nude-Foxn1nu strain mice; conditions: for anti-tumor effect over early, mid and late stages: 14-day, 21-day and 28-day groups, 10 mg/kg IV
Method: In this section, cell culture, tumor induction and drug injection studies were carried out. First, 20 μl of 1×10^6 MDA-MB-231 human triple negative cancer cells were cultured in T75 tissue culture flasks (CELLTREAT, Pepperell, Mass., USA). This was carried out at 37° C. until 70% confluence was reached. The cells were grown under normal atmospheric pressure levels in a “L15^+ medium” that is typically made up of: L-15 medium (ATCC, Manassas, Va., USA), supplemented with 100 I.U./ml penicillin/100 µg/ml streptomycin and 10% FBS (ATCC, Manassas, Va., USA).
Forty 4-week old Athymic Nude-Foxn1nu strain mice with individual weights of ˜17 g each was purchase from Envigo (Somerset, N.J., USA). These animals were approved for use in the current work by the University of Massachusetts Medical School Institutional Animal Care and Use Committee (UMMS IACUC) with docket #A2630-17. All of the animals were maintained and used according to the approved UMMS IACUC procedure and guideline.
Subcutaneous tumor xenografts were induced by the injection of 5.0×10^6 of MDA-MB-231 human triple negative breast cancer cells (suspended in sterile saline) into the interscapular region (for a better angiogenic response). Tumor formation was carefully assessed by palpation. Tumor growth was then monitored daily with the digital calipers. The tumor volume was calculated using the following modified ellipsoidal formula: […]
where length was the longest axis of the tumor and width is the measurement at a right angle to the length.
The mice were randomly chosen in groups of three (for each drugs injection) into their respective treatment groups. These include groups of mice with early stage (14 days after tumor induction), mid stage (21 days after tumor induction) and late stage (28 days after tumor induction) tumors. The weights of the mice and their tumor sizes were monitored and measured (using digital calipers) on a daily basis. These precise volumes and measured weights of the mice were used to guide the administration of the drugs. They were also used to monitor toxicity and side effects associated with the drugs. For each of the study groups, 3 mice each were randomly assigned to injection of 10 mg/kg of the specific drug configuration (PGS, [D-Lys6]LHRH-conjugated PGS, and DMSO).
(§1) Different groups of mice were injected intravenously with each drug through their tail veins. This was done after tumor growth for 14, 21 and 28 days. The mice were injected with 10 mg/kg per week, during the two-week periods in which the effects of drugs were investigated. Following each drug administration, the tumor sizes were monitored with calipers on a daily basis (every 24 hours). In this way, the possible tumor shrinkage, growth or elimination, were monitored on a daily basis. Furthermore, the health status of the mice was monitored on a daily basis. This was done by monitoring the mice for signs of weight loss or altered motor ability in their cages. At the end of study, the mice were euthanized, following the approved IACUC guidelines and procedures. Thereafter, tumor tissues were excised from all of the mice, including tissues from their major organs (kidneys, spleen, liver and lungs).

[2] = test system: breast cancer cells with knocked down LHRH receptors (MDA-MB-231); assay: alamar blue reduction after siRNA knock down of LHRH receptors; type: cell-based, human; conditions: 5 μM; 24, 48 and 72 hours; LHRH receptor knock down
MDA-MB-231 cells = assay: confocal fluorescence imaging of cellular uptake and cytotoxicity; type: cell-based, human; conditions: 30 μM; 6 hours
[3] = histopathological and toxicity studies (body weight, clinical signs, H&E of organs); type: in vivo, athymic nude mice; conditions: 10 mg/kg weekly for two weeks, IV; for toxicity / side effects (clinical signs, mortality, body weight): tumor-bearing mice
Method: as §1
(§2) Following the in vivo tumor induction and growth experiments, tissues were extracted from the kidneys, spleen, lungs, liver and tumor regions. These were immediately fixed in 4% paraformaldehyde, dehydrated in a graded series of alcohol, and embedded in paraffin. Double doses of 10 mg/kg of PGS and PGS-[D-Lys6]LHRH were then administered (on a weekly basis for two weeks) to female athymic nude mice that were subcutaneously-induced with TNBC. In this way, qualitative toxicity was studied by considering differences in mortality, changes in body weight, clinical signs, gross observations and the histopathology of the lungs, kidneys and the liver at different stages of tumor development. This was done for the different drugs and cancer treatment durations. Daily observations and weight measurements were also used to check for possible animal reactions to the drugs, physiological changes, weight loss/gain, and the general well-being of the mice.
(§3) Hematoxylin and eosin (H and E) staining was also carried out. This was used for the identification of tumor necrosis and the examination of histologic changes that occurred in vital organs, following the administration of the drugs. Briefly, formalin-fixed, paraffin-embedded tissue/organs (tumor, kidneys, liver and lungs) samples (5 μm) were injected with PGS, [D-Lys6]LHRH-conjugated PGS, and DMSO. These were hydrated by passing them through decreasing concentrations (100, 90 &70%) of alcohol baths and water.
(§4) The hydrated tissue sections were then stained in hematoxylin solution for 5 mins. This was followed by rinsing with tap water for 3 minutes and differentiation in 1% acid alcohol for 5 minutes. Tap water was then used to rinse (three times) before dipping the sections in ammonia water for 2 minutes. This was followed by staining with eosin for 10 mins. The treated sliced samples were dehydrated in solution with increasing concentrations of alcohols followed by xylene. Finally, a few drops of Permount Mounting Medium were used to mount the resulting samples. The stained slides were then imaged with a 20× objective lens using a TS100F Nikon microscope (Nikon Instruments Inc., Melville, N.Y., USA) coupled with a DS-Fi3 C camera.

[4] = test system: breast cancer tumor (LHRH receptors on triple negative breast tumor tissue); assay: drug-tissue adhesion study with drug-coated AFM tips; type: binding, mice
Method: In an effort to understand the specificity in the targeting of triple negative breast cancer via the receptors that are over-expressed on the tumor, adhesion measurements were carried out on the control xenograft tissue samples at different stages of tumor development. Adhesion forces and interactions (between the different drug molecules and receptors on the surfaces of the tumor tissues at different stages of development) were explored in an effort to understand the interactions of the drugs with the tumor and non-tumor tissue.
Antigen retrieval was carried out on the fixed tissue. This involved exposing target antigens to receptors on a 10 μm thick microtome tissue slice. These sliced tissues were prepared for adhesion measurements in an Asylum MFP3D-Bio Atomic Force Microscope (AFM) (Asylum Research, Oxford Instrument, CA, USA). The AFM tips RESP-20 AFM tip (Bruker Santa Barbara, Calif., USA) were dip-coated with prodigiosin, or [D-Lys6]LHRH-conjugated prodigiosin using the techniques described in Obayemi et al. (J. Mech. Behav. Biomed. Mater., 68 (2017), pp. 276-286).
A simple AFM tip dip-coating technique (J. D. Obayemi et al. Materials Science and Engineering C. 66, (2016), 51-65, Hampp, E. et al. Res. 27 (22), 2891, Hutter, J. L. et al. Instrum. 64, 1868) (of the drugs) was used to coat the AFM tips at room-temperature (˜23° C.). In addition, a positive control of LHRH peptides was coated onto the AFM tips and used to determine the adhesion forces between the receptors on breast cancer tissue. All of the coated AFM tips were air-dried for about 6 h and kept in a desiccator overnight before the adhesion measurements.
The spring constants of the coated and uncoated AFM tips were measured experimentally using the thermal tune method (J. D. Obayemi, et al. Mater., 68 (2017), 276-286). This was done to obtain the actual spring constants that were used to calculate the pull-off forces from Hooke's law. The adhesion interactions were measured for the following configurations of coatings on the AFM tips and breast cancer tumor at different stages on the mice: […]

[5] = test system: MDA-MB 231 induced xenograft breast tumor; assay: histopathological (H&E) and TEM examination of treated tumor tissue; type: in vivo, mice; conditions: for histopathology of tumor tissue (necrosis): after treatment, H&E
Method: as §2, §3
as §4, with “The stained slides were then imaged with a 20× objective lens using a TS100F Nikon microscope (Nikon Instruments Inc., Melville, N.Y., USA) coupled with a DS-Fi3 C camera.” left out

[6] = 21-day (mid stage) group, 10 mg/kg per week IV, two weeks
[7] = 28-day (late stage) group, 10 mg/kg per week IV, two weeks
[8] = day 14 (early stage) group, two IV injections (one per week) of 10 mg/kg
[9] = listed as [D-Lys6]LHRH-conjugated PGS

Method for MDA MB 231 cells: The alamar blue cell viability and cytotoxicity assay was used to study the MDA MB 231 cells lines in the log phase of growth. MDA MB 231 cells were harvested with trypsin-EDTA in the presence of Dulbecco Phosphate Buffer (DPBS). 10^4 cells/well were then seeded in 12-well plates in L15+ medium (L15 medium with cell medium supplement of FBS and penicillin/streptomycin). […] Cell viability was monitored using the alamar blue cell viability and cytotoxicity reagent (Thermo Fisher Scientific, Waltham, Mass., USA) at times of 0 h, 18 h, 24 h, 48 h and 72 h, following drug addition. At each time point, the culture medium was replaced with 1 ml of 10% alamar blue solution (in culture medium). The 12-well plates were then incubated at 37° C. for different durations. After each time point, 100 μl of the solution incubated with alamar blue solution (ABS) was transferred into triplicate wells of a black opaque 96-well plate (Thermo Fisher Scientific, Waltham, Mass., USA).
The fluorescence intensities of the cell medium supernatant incubated with ABS were measured at 544 nm excitation and 590 nm emission using a 1420 Victor3 multi-label plate reader (Perkin Elmer, Waltham, Mass., USA). The percentage of alamar blue reduction, the percentage difference in cell population between the treated and untreated cells, and the percentage of cell growth inhibition, were determined using a combination of the ABS and cell viability studies. In this way, the cytotoxicity of the respective conjugated drug molecules was obtained from equations 1 and 2 below.
where, FIsample=fluorescence intensity of the (treated or untreated) cells, FI10% AB=fluorescence intensity of 10% alamar blue reagent (negative control) and FI10% R=fluorescence intensity of 100% reduced alamar blue (positive control).
FItreated=fluorescence intensity of treated cells and FIcells=fluorescence intensity of untreated cells

With CCCCCC1=C/C(=C/c2[nH]c(-c3ccc[nH]3)cc2OC)N=C1C [PGS, 4-methoxy-5-[(Z)-(5-methyl-4-pentyl-2H-pyrrol-2-ylidene)methyl]-1H,1′H-2,2′-bipyrrole, reference compound] the resulting tumor volume [1, 6] was 90.11 mm^3, the xenograft tumor size [1, 7] was 300.3 mm^3 and the final tumor sizes [1, 8] was about 29.42 mm^3. For the same compound, the “tumor outcome, early stage” value [1, 8] was “some tumor shrinkage”, the “cell viability (percentage alamar blue reduction) in siRNA-treated cells” value [2] was “no significant differences in cell viability” and the “structural changes of actin filaments, vinculin and nuclei (confocal)” value (MDA-MB-231 cells) was “degradation, disorganization and depolymerization of the actin filaments and vinculin structures”. For the same compound, the “histological / pathological changes in liver, lung and kidneys (H&E)” value (“histological / pathological changes” for short) [3] was “no significant histological or significant pathological changes”.

For “LHRH-PGS: [D-Lys6]LHRH analog conjugated to prodigiosin at the epsilon (ε) amino side chain of the D-Lys6 moiety”, the “cytotoxicity on co-incubation of LHRH” value (MDA MB 231 cells) was “decreased the cytoxicity”, the “percentage alamar blue reduction (cell viability)” value (MDA MB 231 cells; 15 μM, 25 μM, 30 μM, 18, 24, 48 and 72 h post-treatment) was “increasing drug concentration had a greater effect on cell growth” and the “percentage cell growth inhibition” value (MDA MB 231 cells; 15 μM, 25 μM, 30 μM, 72 h) was “effective at inhibiting the growth”. The “adhesion force relative to unconjugated PGS, early stage” value ([4]; early stage breast tumor) was “nearly three times”, the “adhesion force relative to unconjugated PGS, late stage” value ([4]; late stage breast tumor) was “four times” and the “adhesion force relative to unconjugated PGS, mid stage” value ([4]; mid stage breast tumor) was “three times”. For the same compound, the “anti-tumor effect over early, mid and late stages” value (from here on “anti-tumor effect over early”) ([1]; listed as LHRH-prodigiosin, 10 mg/kg) was “decrease, shrink or eliminate tumors”, the “anti-tumor effect over early” value ([1]; listed as [D-Lys6]LHRH-conjugated PGS, 10 mg/kg) was “significant anti-tumor effects; also recorded: highest therapeutic activity” and the “anti-tumor effect over early” value ([1]; listed as [D-Lys6]LHRH-conjugated prodigiosin, 10 mg/kg) was “shrunk or eliminate the induced tumor”. For the same compound, the “decrease in xenograft volume compared to unconjugated PGS” value [1, 6] was 95.6%, the resulting tumor volume [1, 6] was 3.93 mm^3 and the “tumor outcome, mid stage” value [1, 6] was “significant shrinkage”. For the same compound, the “percentage reduction in xenograft tumor volume compared to unconjugated PGS” value [1, 7] was 83.4%, the xenograft tumor size [1, 7] was 49.9 mm^3 and the “tumor outcome, late stage” value ([1]; 28-day (late stage) group, 10 mg/kg per week IV, two weeks, 10 mg/kg) was “significant tumor shrinkage”. The “tumor outcome, late stage” value ([1]; 28-day (late stage) group, 10 mg/kg per week IV, two weeks, listed as [D-Lys6]LHRH-conjugated prodigiosin, 10 mg/kg) was “significant shrinkage”, the “tumor outcome, early stage” value ([1]; day 14 (early stage) group, two IV injections (one per week) of 10 mg/kg, listed as LHRH-conjugated prodigiosin, 10 mg/kg) was “elimination of early stage breast tumors” and the “tumor outcome, early stage” value ([1]; day 14 (early stage) group, two IV injections (one per week) of 10 mg/kg, listed as [D-Lys6]LHRH-conjugated PGS, 10 mg/kg) was “tumor elimination”. For the same compound, the “tumor outcome, early stage” value ([1]; day 14 (early stage) group, two IV injections (one per week) of 10 mg/kg, listed as [D-Lys6]LHRH-conjugated prodigiosin, 10 mg/kg) was “eliminated the tumors”, the “cell viability (percentage alamar blue reduction) in siRNA-treated cells” value [2] was “no significant differences in cell viability” and the “structural changes of tumor cells/tissue (TEM)” value ([5]; 21-day and 28-day treatment groups) was “greater structural changes”. The “histopathology of tumor tissue (necrosis)” value [5] was “exhibited disorder and different sizes”, the “histopathology of tumor tissue (necrosis)” value [5, 9] was “higher levels of necrosis in the tumors” and the “structural changes of actin filaments, vinculin and nuclei (confocal)” value (MDA-MB-231 cells) was “more evident”. The “histological / pathological changes” value ([3]; listed as [D-Lys6]LHRH-PGS) was “did not induce any degeneration in the primary organs”, the “histological / pathological changes” value [3, 9] was “no significant histological or significant pathological changes; also recorded: no evidence of liver cell hyaline degeneration and necrosis; also recorded: no pulmonary edema or hyperplasia; also recorded: glomerular volume of the kidneys was normal; also recorded: no chemotherapeutic drug-induced histological changes and tumor metastasis” and the “toxicity / side effects (clinical signs, mortality, body weight)” value ([3]; listed as LHRH-prodigiosin) was “No clinical signs, differences in mortality, or changes in body weight”. For the same compound, the “toxicity / side effects (clinical signs, mortality, body weight)” value ([3]; listed as [D-Lys6]LHRH-conjugated prodigiosin) was “minimal; also recorded: without any evidence of toxicity”.
